Data: article PMC11317573 (Proceedings of the National Academy of Sciences of the …, 2024)

Molecular target: T1, RdsA (YhiN) (Escherichia coli, UniProt P37631)
T1 sequence (P37631 1-400): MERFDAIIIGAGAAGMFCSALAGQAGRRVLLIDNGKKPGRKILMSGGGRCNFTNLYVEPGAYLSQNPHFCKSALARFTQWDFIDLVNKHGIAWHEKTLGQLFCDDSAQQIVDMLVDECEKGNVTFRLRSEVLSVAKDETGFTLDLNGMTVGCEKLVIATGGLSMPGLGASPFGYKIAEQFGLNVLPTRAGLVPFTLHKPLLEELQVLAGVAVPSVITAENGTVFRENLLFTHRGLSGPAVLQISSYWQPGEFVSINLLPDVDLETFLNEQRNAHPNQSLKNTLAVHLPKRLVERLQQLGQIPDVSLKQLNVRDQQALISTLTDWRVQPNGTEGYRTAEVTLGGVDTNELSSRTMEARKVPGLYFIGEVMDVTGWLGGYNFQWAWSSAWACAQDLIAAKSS
Assay: UV/visible spectrum of purified protein
Assay type: binding
Details: as purified; noncovalent

In the case of `Cc1cc2nc3c(=O)[nH]c(=O)nc-3n(C[C@H](O)[C@H](O)[C@H](O)COP(=O)(O)OP(=O)(O)OC[C@H]3O[C@@H](n4cnc5c(N)ncnc54)[C@H](O)[C@@H]3O)c2cc1C` [FAD], the “holoprotein fraction (oxidized flavin)” value is reported as 61%.
